Laboratory results taken from US20090291857A1, “METHODS TO IDENTIFY INHIBITORS OF THE UNFOLDED PROTEIN RESPONSE” (THE BOARD OF TRUSTEES OF THE LELAND STANFORD JUNIOR …, priority 2006, published 2009).

System: ATF6
Experiment: ATF6 cleavage in hypoxic HT1080 cells (Western blot)
Format: cell-based, human
Conditions: 2.5 μM, hypoxia
Method: A. Effect of irestatin 9389 on PERK and ATF6 pathways. HT1080 cells were treated with vehicle alone (lanes 1-4) or 2.5 μM irestatin 9389 (lanes 5-8) and cultured under aerobic conditions for 18 hours (N) or shifted to hypoxia for the indicated times. Protein lysates were analyzed by Western blot analysis using antisera specific for ATF6 (top), CHOP/GADD153 (middle) or actin (bottom). Arrow indicates the cleaved, transcriptionally active form of ATF6. B. Cleavage of caspase-3 in irestatin-treated cells under hypoxia. HT1080 cells were cultured in normoxia (N) or under hypoxia for 36 hours (H 36) in absence or presence of irestatin 9389 (2.5 μM). Arrows indicate proteolytically cleaved caspase-3. C. Colony formation assay. HT1080 cells were treated as in B under normoxia (N) or hypoxia for 48 hours (H 48). Cells were harvested, counted, and allowed to grow under normal culture conditions for 11-12 days. Colonies were visualized with crystal violet staining. D. Quantification of clonogenic survival assay. Values represent the mean+/−SEM from at least 4 independent experiments. E. TUNEL staining of cells treated as in C. F. Quantification of TUNEL-positive cells. Values represent the mean+/−SEM from at least 3 experiments. […] Cells were harvested at the indicated times and counted by hemocytometer. Values represent the mean calculated from triplicate experiments +/−SEM. […]

Structure (SMILES): Cc1csc(NC(=O)CSc2nc3c(c(C(F)(F)F)c2C#N)CCC3)n1 [Compound 9389]
- proteolytic cleavage of ATF6 into active 50 kDa form: significantly increased
